How the values were obtained:
[1] = system: nerve growth factor production by L-M cells; experiment: Enhancement of nerve growth factor production in L-M cells (enzyme immunoassay); assay type: cell-based, Rat
Procedure: Rat fibroblast L-M cells (ATCC CCL-1.2) were suspended in a M199 medium (Gibco) containing 0.5% Bacto Peptone (Gibco) at a concentration of 1.0 x 10^5 cells/ml. 1 ml of the suspension was inoculated into each well of a 24-well plate. The cells were cultured aseptically. After culturing for 2 days, the medium was removed and substituted with a M199 medium containing 0.5% bovine serum albumin (Sigma). Then, cyclopentenone (final concentration of 1 to 25 µM), 4HCP (Aldrich) (final concentration of 12.5µM) or dipropionylcyclopentenone (final concentration of 3.1 to 9.4 µM) was added thereto. […]
After completion of the incubation, the concentration of nerve growth factor in the culture was measured by enzyme immunoassay (NGF Emax Immuno Assay System: Promega). […]

mouse = experiment: Single oral dose toxicity in mouse; assay type: in vivo; details: mouse, in vivo, po, 100 mg/kg

## O=C1C=CC(O)C1O (stereo not drawn) [cyclopentenone, 4,5-dihydroxy-2-cyclopenten-1-one]
[1]; 1 µM, 24 hours, 0 µM control 0.570
  Nerve growth factor concentration: 0.700 ng/mL
[1]; 2.5 µM, 24 hours, 0 µM control 0.570
  Nerve growth factor concentration: 0.740 ng/mL
[1]; 5 µM, 24 hours, 0 µM control 0.570
  Nerve growth factor concentration: 0.870 ng/mL
[1]; 7.5 µM, 24 hours, 0 µM control 0.570
  Nerve growth factor concentration: 0.900 ng/mL
[1]; 10 µM, 24 hours, 0 µM control 0.570
  Nerve growth factor concentration: 1.080 ng/mL
[1]; 12.5 µM, 24 hours, 0 µM control 0.570
  Nerve growth factor concentration: 1.340 ng/mL
[1]; 15 µM, 24 hours, 0 µM control 0.570
  Nerve growth factor concentration: 1.550 ng/mL
[1]; 17.5 µM, 24 hours, 0 µM control 0.570
  Nerve growth factor concentration: 2.150 ng/mL
[1]; 20 µM, 24 hours, 0 µM control 0.570
  Nerve growth factor concentration: 1.900 ng/mL
[1]; 25 µM, 24 hours, 0 µM control 0.570
  Nerve growth factor concentration: 1.540 ng/mL
[1]; 24 hours incubation
  production of nerve growth factor by L-M cells (result in words): enhanced the production of nerve growth factor by L-M cells in a concentration-dependent manner
[1]; time course: 15 µM, cultivation time 0 hour, control 0.000
  Nerve growth factor concentration: 0.000 ng/mL
[1]; time course: 15 µM, cultivation time 3 hour, control 0.028
  Nerve growth factor concentration: 0.050 ng/mL
[1]; time course: 15 µM, cultivation time 6 hour, control 0.233
  Nerve growth factor concentration: 0.359 ng/mL
[1]; time course: 15 µM, cultivation time 12 hour, control 0.575
  Nerve growth factor concentration: 0.686 ng/mL
[1]; time course: 15 µM, cultivation time 24 hour, control 0.658
  Nerve growth factor concentration: 1.186 ng/mL
[1]; time course: 15 µM, cultivation time 48 hour, control 0.736
  Nerve growth factor concentration: 1.236 ng/mL
[1]; time course: 17.5 µM, cultivation time 0 hour, control 0.000
  Nerve growth factor concentration: 0.000 ng/mL
[1]; time course: 17.5 µM, cultivation time 3 hour, control 0.028
  Nerve growth factor concentration: 0.054 ng/mL
[1]; time course: 17.5 µM, cultivation time 6 hour, control 0.233
  Nerve growth factor concentration: 0.205 ng/mL
[1]; time course: 17.5 µM, cultivation time 12 hour, control 0.575
  Nerve growth factor concentration: 0.635 ng/mL
[1]; time course: 17.5 µM, cultivation time 24 hour, control 0.658
  Nerve growth factor concentration: 1.535 ng/mL
[1]; time course: 17.5 µM, cultivation time 48 hour, control 0.736
  Nerve growth factor concentration: 1.492 ng/mL
[1]; time course: 20 µM, cultivation time 0 hour, control 0.000
  Nerve growth factor concentration: 0.000 ng/mL
[1]; time course: 20 µM, cultivation time 3 hour, control 0.028
  Nerve growth factor concentration: 0.082 ng/mL
[1]; time course: 20 µM, cultivation time 6 hour, control 0.233
  Nerve growth factor concentration: 0.179 ng/mL
[1]; time course: 20 µM, cultivation time 12 hour, control 0.575
  Nerve growth factor concentration: 0.581 ng/mL
[1]; time course: 20 µM, cultivation time 24 hour, control 0.658
  Nerve growth factor concentration: 1.681 ng/mL
[1]; time course: 20 µM, cultivation time 48 hour, control 0.736
  Nerve growth factor concentration: 1.874 ng/mL
mouse
  death after single oral dose: no example of death was observed

From patent publication EP1170007A1, “REMEDIES” (Takara Shuzo Co, Ltd., priority 1999, dated 2000)
